Blank lines part the entries; values can stand above or below the compound they belong to.
Key:
Assay type in all cases: cell-based
[1] = system: E. Coli K-12; assay: Susceptibility test: individual MIC and check point FIC; design: MICCOE: unit not given beside the values; details: for MICantibiotic: antibiotic alone, unit assumed; for FIC: smallest FIC
Procedure: (§1) FIC was calculated based on the toxicity of each molecule on E. coli as well as their combined toxicity on E. coli. The equation for calculation is as follows:
(§2) FIC═[COE]/MICCOE+[Antibiotic]/MICantibiotic
(§3) An FIC less than ≤0.5 indicates synergy, FIC in the range of >0.5 and ≤1.0 indicates additive activity, FIC in the range of >1 and […] indicates indifference, and a FIC >4 indicates antagonism.
(§4) Minimal inhibition concentration (MIC) were used to determine the toxicity of individual molecules as well as them in combination on several bacterial strains. The individual MIC were determined by the minimal concentration of molecules required to inhibit the growth of the bacterial strain in culture medium (such as Lysogeny broth (LB) and Muller Hinton Broth (MHB)) at 37° C. overnight. The combined MICs were measured by using check point method, where the bacterial strain was cultured in a 96-well plate assay with a series concentrations of COE along the rows and a series concentrations of antibiotic molecules along the columns in culture medium at 37° C. overnight. The preparation of the bacterial strain for the assay was done as known in the art. […] Further information regarding the protocol can be found in Wiegand et al., Natl. Protoc., (2008) 3(2):163-75, Orhan et al., J. of Clin. Microbiol. (2005) 43(1):140-143 and Yan et al., Chem. Sci., (2016) 7(9):5714-5722.

[2] = system: Colistin resistant Acinetobactor baumanni; assay: as above
Procedure: as §1, §2, §3, §4

[3] = system: Acinetobactor baumanni; assay: as above
Procedure: as §1, §2, §3, §4

[4] = system: Colistin resistant Pseudomonas aeruginosa; assay: as above; design: MICantibiotic / MICCOE: unit not given beside the values
Procedure: as §1, §2, §3, §4

[5] = system: HepG2 (ATCC HB-8065) cells; assay: Cellular cytotoxicity, MTT viability assay; details: 24 h incubation, at 128 μg/mL
Procedure: Cellular cytotoxicity was assessed using an MTT viability assay. HepG2 (ATCC HB-8065) cells were seeded at 1×10^4 cells/well in 96 well plates over night at 37° C. in DMEM supplemented with 10% FBS before use. COEs were serially diluted with 2-fold dilution in culture media to afford a concentration ranging from 2 to 128 μg/mL. After 24 h incubation, 10 μL of a 5 mg/mL solution of MTT was added to each well. After incubation for 2-4 h, upon discard of previous media, 100 μL of DMSO as solubilizing solution was added to each well, and absorbance at 570 nm were measured on a plate reader. Percent viability was determined by dividing background-corrected absorbance measurements by background corrected measurements for untreated cells. Formula O, Formula TT and Formula PP were measured to be around 94%, 70% and 103% of cell viability at 128 μg/mL, respectively.

[6] = system: Pseudomonas aeruginosa 01 (PA01); assay: Susceptibility test: individual MIC and check point FIC; design: unit not given beside the values; details: antibiotic alone, 37° C. overnight
Procedure: as §1, §2, §3, §4

[7] = COE in combination with Colistin, smallest FIC

Compound: CC1(C)S[C@@H]2[C@H](NC(=O)[C@H](N)c3ccccc3)C(=O)N2[C@H]1C(=O)O [Ampicilin, ampicillin]
- MICantibiotic ([1]; E. Coli K-12): 4 µg/mL

Compound: O=C(N[C@H](CO)[C@H](O)c1ccc([N+](=O)[O-])cc1)C(Cl)Cl [Chloramphenicol, chloramphenicol]
- MICantibiotic ([1]; E. Coli K-12): 16 µg/mL

Compound: CO[C@H]1/C=C/O[C@@]2(C)Oc3c(C)c(O)c4c(O)c(c(/C=N/N5CCN(C)CC5)c(O)c4c3C2=O)NC(=O)/C(C)=C\C=C\[C@H](C)[C@H](O)[C@@H](C)[C@@H](O)[C@@H](C)[C@H](OC(C)=O)[C@@H]1C [Rifampin, rifampin]
- MICantibiotic ([1]; E. Coli K-12): 32 µg/mL

Compound: colistin [reference compound]
- MICantibiotic ([2]; antibiotic alone): 512
- MICantibiotic ([3]; antibiotic alone): 256
- MICantibiotic ([4]; antibiotic alone): 16
- MICantibiotic ([1]; E. Coli K-12): 1 µg/mL
- MICantibiotic [6]: 1

Compound: penicillin
- MICantibiotic ([1]; E. Coli K-12): 64 µg/mL

Now from value to compound, other results behind:

- MICantibiotic ([1]; E. Coli K-12): 0.125 µg/mL
Compound: O=C(O)c1cn(C2CC2)c2cc(N3CCNCC3)c(F)cc2c1=O [Ciprofloxacin, ciprofloxacin]

- MICCOE ([2]; COE alone): 256
- MICCOE ([3]; COE alone): 256
- MICCOE ([4]; COE alone): 256
- MICCOE ([1]; COE alone, E. Coli K-12): 1024
Compound: C[N+](C)(C)CCCCCCOc1cc(/C=C/c2ccc(/C=C/c3ccc(/C=C/c4cc(OCCCCCC[N+](C)(C)C)cc(OCCCCCC[N+](C)(C)C)c4)cc3)cc2)cc(OCCCCCC[N+](C)(C)C)c1 [Formula TT]
- FIC [2, 7]: 0.25
- antimicrobial effect of combination (in words) ([2]; with colistin): significant synergistic antimicrobial effect
- FIC [3, 7]: 0.51
- FIC [4, 7]: 0.14
- antimicrobial effect of combination (in words) ([4]; with colistin): significant synergistic antimicrobial effect
- cell viability [5]: ~70%
- FIC ([1]; COE in combination with Chloramphenicol, E. Coli K-12): 1.0
- FIC ([1]; COE in combination with Penicillin, E. Coli K-12): 0.53
- FIC ([1]; COE in combination with Rifampin, E. Coli K-12): 0.28
- antimicrobial effect of combination (in words) ([1]; with rifampin, E. coli K-12): significant synergistic antimicrobial effect

- MICantibiotic ([1]; E. Coli K-12): 512 µg/mL
Compound: Cc1cc(NS(=O)(=O)c2ccc(N)cc2)no1 [Sulfamethoxazole, sulfamethoxazole]

Reference: patent publication US20230019027A1, “SHORT CONJUGATED OLIGOELECTROLYTESAND ANTIBIOTICS” (The Regents Of The University Of California, priority 2019, published 2023)
